Results from patent US7410983B2 (Fournier Laboratories Ireland Limited, priority 2000, dated 2008).

Tests used:
[1] = CoQ10 plasma levels after treatment; type: in vivo, human; conditions: 12 weeks, 200 mg once daily each
Experimental: (§1) Male or female patients aged less than 70 years and without severe obesity (Body Mass Index below 35 kg/m^2) were included after a 6 week run-in period if they had Haemoglobin A1c below 9%, total cholesterol below 6.5 mmol/l and either triglyceride above 1.8 mmol/l or HDL cholesterol below 1 mmol/l. The two therapeutic agents alone or in combination were given each as 200 mg once daily. Capsules identical in appearance to each agent but containing placebo were given to maintain the double-blind nature of the study.

[2] = system: patients with type 2 diabetes; experiment: Venous occlusion plethysmography: forearm blood flow response to acetylcholine with co-infusion of L-NMMA; type: in vivo, human; conditions: 12 weeks
Experimental: as §1
(§2) Evaluations of vascular function were carried out by bilateral venous occlusion plethysmography at weeks 0 and 12. […]
(§3) Plethysmography studies were performed during a 5 minute infusion of each agent, diluted in saline and infused at a rate of 1 mL/min into the brachial artery of the non-dominant arm via a thin plastic cannula Each infusion of vasoactive agents was preceded by a period of saline infusion. Bilateral forearm blood flow was measured simultaneously at 15 second intervals for the final two minutes of each 5 minute infusion period employing mercury-in-silastic strain gauges. […] Results were expressed as the area under the curve (AUC) of the percent increase in forearm blood flow ratio (infused arm versus control arm) to account for any systemic effect of these vasoactive drugs. […]

[3] = system: patients with type 2 diabetes; experiment: Lipids, diabetes control and blood pressure in the randomized clinical trial; type: in vivo, human; conditions: 12 weeks, 200 mg once daily
Experimental: as §1

[4] = system: patients with type 2 diabetes; experiment: Venous occlusion plethysmography: forearm blood flow response to intra-brachial sodium nitroprusside; type: in vivo, human; conditions: 12 weeks
Experimental: as §1, §2, §3

[5] = system: patients with type 2 diabetes; experiment: Venous occlusion plethysmography: forearm blood flow response to intra-brachial acetylcholine; type: in vivo, human; conditions: 12 weeks; for mean change on treatment (Week 12-Week 0) in acetylcholine AUC percent increase in forearm blood flow ratio: single treatment group, 200 mg once daily each agent, ACh 7.5, 15 and 30 μg/min, aspirin pretreatment
Experimental: Evaluations of vascular function were carried out by bilateral venous occlusion plethysmography at weeks 0 and 12. These consisted of serial measurements of forearm blood flow before and after intra-brachial artery infusion of acetylcholine (ACh 7.5, 15 and 30 μg/min), sodium nitroprusside (SNP 1.5, 3 and 10 μg/min) and N^G-monomethyl-L-arginine (L-NMMA 4 μmol/l). […] Pretreatment with acetylsalicylic acid (aspirin) (650 mg daily taken orally) was given for one week to block prostacyclin and thromboxane generation.
Plethysmography studies were performed during a 5 minute infusion of each agent, diluted in saline and infused at a rate of 1 mL/min into the brachial artery of the non-dominant arm via a thin plastic cannula Each infusion of vasoactive agents was preceded by a period of saline infusion. Bilateral forearm blood flow was measured simultaneously at 15 second intervals for the final two minutes of each 5 minute infusion period employing mercury-in-silastic strain gauges. During measurements hands were excluded from the circulation by inflation of wrist cuffs to 200 mmHg and venous occlusion was obtained by cyclical inflation of upper arm cuffs to 40 mmHg. Results were expressed as the area under the curve (AUC) of the percent increase in forearm blood flow ratio (infused arm versus control arm) to account for any systemic effect of these vasoactive drugs. The AUC provided integration over time of the dose response to the agent used. AUC for percent change in blood flow to ACh was a priori described as the primary efficacy criterion in this trial.
Statistical analyses were performed using 2 by 2 analysis of variance using SPSS package

patient = conditions: for the patient; cited from earlier work
[6] = pooled groups of the 2×2 design: all patients on the agent, with or without the other agent

COC1=C(OC)C(=O)C(C/C=C(\C)CC/C=C(\C)CC/C=C(\C)CC/C=C(\C)CC/C=C(\C)CC/C=C(\C)CC/C=C(\C)CC/C=C(\C)CC/C=C(\C)CCC=C(C)C)=C(C)C1=O [Q, coenzyme Q10]
plasma levels of CoQ10 after treatment, CoQ10 alone versus combination groups [1]: did not differ | mean change on treatment (Week 12-Week 0) in acetylcholine percent increase in forearm blood flow ratio with co-infusion of L-NMMA, factorial margin (F+ or Q+) [2, 6]: 48% [6% to 90%] | mean change on treatment (Week 12-Week 0) in acetylcholine percent increase in forearm blood flow ratio with co-infusion of L-NMMA ([2]; single treatment group, 200 mg once daily each agent): −21% [−76% to | lipid lowering effects [3]: no lipid lowering effects | mean change on treatment (Week 12-week 0) in sodium nitroprusside AUC percent increase in forearm blood flow ratio, factorial margin (F+ or Q+) [4, 6]: 822% [399% to | mean change on treatment (Week 12-week 0) in sodium nitroprusside AUC percent increase in forearm blood flow ratio ([4]; single treatment group, 200 mg once daily each agent, SNP 1.5, 3 and 10 μg/min): 50% [−641% to | mean change on treatment (Week 12-Week 0) in acetylcholine AUC percent increase in forearm blood flow ratio, factorial margin (F+ or Q+) [5, 6]: 206% [119% to | mean change on treatment (Week 12-Week 0) in acetylcholine AUC percent increase in forearm blood flow ratio [5]: −7% [−119% | mean change on treatment (Week 12-Week 0) in acetylcholine AUC percent increase in forearm blood flow ratio ([5]; listed as CoQ10): no change | dose previously demonstrated to be safe (patient): up to 300 mg daily
